Read-outs that look alike come from different tables or passages of the source.
Tests used:
HT29 cells = assay: Inhibition of cell necrosis (CCK8 method), HT29 cells; assay type: cell-based, human; conditions: Homo sapiens, HT-29, 16 h, HT29, Human TNF-α/AT-406/Z-VAD-FMK, 16 hours, CCK8
Procedure, shortened: (§1)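 HT29 (1.2×10^4/well) and L929 (2.0×10^4/well) cells were pretreated 30 min with compound, 9-point 4-fold series from 10 μM in duplicate. Necrosis was induced with human TNF-α 20 ng/mL, AT-406 […] and Z-VAD-FMK 20 μM for 16 h (HT29), or murine TNF-α 20 ng/mL and Z-VAD-FMK 25 μM for 4-8 h (L929). CCK8 viability; IC50 from dose-effect curve.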

L929 cells = assay: Inhibition of cell necrosis (CCK8 method), L929 cells; assay type: cell-based, mouse; conditions: Mus musculus, L929, L929, Murine TNF-α/Z-VAD-FMK, 4-8 hours, CCK8
Procedure, shortened: as §1

[1] = Rat PK&BBB (pharmacokinetics and brain penetration); assay type: in vivo, SD rats
Method: (§2) In this assay, the pharmacokinetic characteristics and ability to penetrate the blood-brain barrier of the compounds of the present application were assayed after administration of some of the compounds of the present application to SD rats, CD-1 mice or beagle dogs by single oral administration and intravenous injection.
(§3) 1. Intravenous (IV) injection group: an appropriate amount of the assay compound was weighed, and completely dissolved in an appropriate volume of vehicle. The mixture was stirred, vortexed and/or sonicated. Once a solution was obtained, the vehicle was gradually added to a final volume to reach the target concentration. The solution was vortexed, and sonicated to obtain a homogeneous solution. The solution was filtered through a 0.22 m PVDF membrane.
as §3, with “2. Oral (PO)” for “1. Intravenous (IV) injection”, “solution.” for “solution. The solution was filtered through a 0.22 m PVDF membrane.”
(§4) Meanwhile, the IV group was not fasted and the PO group was fasted overnight (>12 hrs) and given food 2 hrs after drug administration. All animals had free access to water. The dosing regimen and pharmacokinetic sampling regimen are given in Table 10 and Table 11 below, respectively.
Rats were administered according to the above protocol, and blood and brain tissue samples were collected and processed at predetermined time points (collection and processing were performed according to conventional methods in the art).
(§5) The brain was weighed and homogenized by adding 4 times of ultrapure water. Six times volume of acetonitrile was added respectively to the whole blood samples and brain homogenate (20 times volume of acetonitrile was added to the whole blood sample of mouse PK). The mixture was vortexed for 1 min and then centrifuged at 4° C., 4500 rpm for 15 min. According to the instrument response, the supernatant was diluted with diluent and the sample was analyzed by LC/MS.
(§6) Pharmacokinetic parameters were calculated using WinNonlin software. The following pharmacokinetic parameters were calculated if appropriate plasma/whole blood drug concentration-time data were available: CL (clearance); Vd (apparent volume of distribution); T1/2 (elimination half-life time); Cmax (peak concentration); Tmax (time to peak); AUC (area under plasma drug concentration-time curve); MRT (mean retention time); F % (bioavailability).

[2] = Beagle PK (pharmacokinetics); assay type: in vivo, beagle dogs; conditions: whole blood, Beagle dog
Method: as §2, §3
as §3, with “2. Oral (PO)” for “1. Intravenous (IV) injection”, “solution.” for “solution. The solution was filtered through a 0.22 m PVDF membrane.”
as §4, §5, §6

[3] = Sprague-Dawley, rat, whole blood, iv, 3 mg/kg, IV 3 mg/kg, read-out: Blood drug concentration
[4] = Sprague-Dawley, rat, whole blood, po, 30 mg/kg, PO 30 mg/kg, read-out: Blood drug concentration
[5] = IV 1 mg/kg, read-out: Blood drug concentration
[6] = PO 3 mg/kg, read-out: Blood drug concentration

AUC(0-inf) ([1]; SD, whole blood, IV 3 mg/kg): 560 ± 62 ng·h/mL
AUC(0-t) ([1]; SD, whole blood, IV 3 mg/kg): 559 ± 62 ng·h/mL
Vd ([1]; SD, whole blood, IV 3 mg/kg): 8.24 ± 0.68 L/kg
half-life ([1]; SD, whole blood, IV 3 mg/kg): 1.06 ± 0.07 h
clearance ([1]; SD, whole blood, IV 3 mg/kg, read-out: Cl—obs): 90.1 ± 10.7 mL/min/kg
AUC(0-inf) ([1]; SD, whole blood, PO 30 mg/kg): 967 ± 285 ng·h/mL
AUC(0-t) ([1]; SD, whole blood, PO 30 mg/kg): 922 ± 357 ng·h/mL
Cmax ([1]; SD, whole blood, PO 30 mg/kg): 309 ± 103 ng/mL
Tmax ([1]; SD, whole blood, PO 30 mg/kg): 1 h
half-life ([1]; SD, whole blood, PO 30 mg/kg): 3.1 ± 0.24 h
bioavailability ([1]; SD, whole blood, PO 30 mg/kg vs IV 3 mg/kg): 17.3 ± 5.1%
Kp at 2 h ([1]; Sprague-Dawley, brain / whole blood, PO 30 mg/kg, 2 h after administration, read-out: Brain/blood ratio): 1.49
concentration at 2 h ([1]; Sprague-Dawley, rat, brain, po, 30 mg/kg, PO 30 mg/kg, 2 h after administration, read-out: Brain concentration): 397 ng/g
concentration at 0 h [1, 3]: 0 ng/mL
concentration at 0.083 h ([1]; Sprague-Dawley, rat, whole blood, iv, 3 mg/kg, IV 3 mg/kg, 0.083 hr, read-out: Blood drug concentration): 1170 ± 149 ng/mL
concentration at 0.25 h [1, 3]: 571 ± 31 ng/mL
concentration at 0.5 h [1, 3]: 275 ± 24 ng/mL
concentration at 1 h [1, 3]: 94.7 ± 10.7 ng/mL
concentration at 2 h ([1]; Sprague-Dawley, rat, whole blood, iv, 3 mg/kg, IV 3 mg/kg, 2 hr, read-out: Blood drug concentration): 25.5 ± 4.7 ng/mL
concentration at 4 h [1, 3]: 4.13 ± 0.75 ng/mL
concentration at 7 h [1, 3]: 0.927 ± 0.301 ng/mL
concentration at 0 h [1, 4]: 0 ng/mL
concentration at 0.25 h [1, 4]: 85.6 ± 26.6 ng/mL
concentration at 0.5 h [1, 4]: 239 ± 47 ng/mL
concentration at 1 h [1, 4]: 309 ± 103 ng/mL
concentration at 2 h ([1]; Sprague-Dawley, rat, whole blood, po, 30 mg/kg, PO 30 mg/kg, 2 hr, read-out: Blood drug concentration): 165 ± 90 ng/mL
concentration at 4 h [1, 4]: 68.7 ± 31 ng/mL
concentration at 7 h [1, 4]: 23.5 ± 5.2 ng/mL
concentration at 24 h ([1]; Sprague-Dawley, rat, whole blood, po, 30 mg/kg, PO 30 mg/kg, 24 hr, read-out: Blood drug concentration): 0.557 ng/mL
concentration at 2 h ([1]; Sprague-Dawley, rat, whole blood, po, 30 mg/kg, PO 30 mg/kg, whole blood, 2 h after administration, read-out: Blood drug concentration): 266 ng/mL
AUC(0-inf) ([2]; IV 1 mg/kg): 699 ± 474 ng·h/mL
AUC(0-t) ([2]; IV 1 mg/kg): 682 ± 447 ng·h/mL
Vd ([2]; IV 1 mg/kg): 2.42 ± 0.54 L/kg
half-life ([2]; IV 1 mg/kg): 1.13 ± 0.65 h
concentration at 0 hr [2, 5]: 0 ng/mL
concentration at 0.083 hr ([2]; IV 1 mg/kg, 0.083 hr, read-out: Blood drug concentration): 843 ± 237 ng/mL
concentration at 0.25 hr [2, 5]: 575 ± 222 ng/mL
concentration at 0.5 h [2, 5]: 334 ± 229 ng/mL
concentration at 1 h [2, 5]: 170 ± 148 ng/mL
concentration at 2 h [2, 5]: 57.9 ± 63.2 ng/mL
concentration at 4 h [2, 5]: 26 ± 24.1 ng/mL
concentration at 7 h [2, 5]: 10 ng/mL
clearance ([2]; IV 1 mg/kg, read-out: Cl—obs): 31.4 ± 17.4 mL/min/kg
AUC(0-inf) ([2]; PO 3 mg/kg): 4240 ng·h/mL
AUC(0-t) ([2]; PO 3 mg/kg): 4210 ng·h/mL
Cmax ([2]; PO 3 mg/kg): 1460 ng/mL
Tmax ([2]; PO 3 mg/kg): 1 h
half-life ([2]; PO 3 mg/kg): 4.55 h
bioavailability ([2]; PO 3 mg/kg vs IV 1 mg/kg): 183%
concentration at 0 hr [2, 6]: 0 ng/mL
concentration at 0.25 hr [2, 6]: 469 ng/mL
concentration at 0.5 h [2, 6]: 1060 ng/mL
concentration at 1 h [2, 6]: 1460 ng/mL
concentration at 2 h [2, 6]: 932 ng/mL
concentration at 4 h [2, 6]: 138 ng/mL
concentration at 7 h [2, 6]: 82.4 ng/mL
concentration at 24 h ([2]; PO 3 mg/kg, 24 hr, read-out: Blood drug concentration): 4.41 ng/mL
Compound: O=C(C1CCN(c2cc(-c3cc(OCCCO)ccc3F)ccn2)CC1)N1N=CCC1c1cc(F)cc(F)c1 (racemic) [Example 18, (5-(3,5-difluorophenyl)-4,5-dihydro-1H-pyrazol-1-yl)(1-(4-(2-fluoro-5-(3-hydroxypropoxy)phenyl)pyridin-2-yl)piperidin-4-yl)methanone]
IC50 (HT29 cells): ≤ 10 nM
IC50 (L929 cells): 50 to 100 nM

From patent US20250074892A1, “CARBONYL BRIDGED HETEROCYCLIC COMPOUND, AND COMPOSITION AND APPLICATION THEREOF” (BEIJING SCITECH-MQ PHARMACEUTICALS LIMITED, priority 2022, published 2025)
